# Experimental data as given in patent publication US8709396B2, “Method and composition for attracting arthropods by volatizing an acid” (Premark FEG L.L.C., priority 2002, dated 2014).
# System: Aedes aegypti (AE) mosquitoes
# Experiment: olfactometer two-stimulus choice test, average percent of mosquitoes attracted
# Type: in vivo
# Settings: for attraction of mosquitoes, result in words: olfactometer, AE mosquitoes, summary statements of the text
# Experimental: 100 Aedes aegypti (AE) mosquitoes were placed into an olfactometer unit. For each test, the mosquitoes were exposed to two sets of stimuli for a collection period of 3 minutes. The mosquitoes could choose between the stimuli or not respond.
# For the first test, ferric chloride hexahydrate was impregnated on diatomaceous earth and was activated with a moisture containing substance to form the first stimulus center. This material released water and trace amounts of hydrochloric acid, HCl. The second stimulus center in this test was a blank (no chemical stimulus).
# For the second test, dry carbon dioxide was fed at 5 ml/min from a standard gas cylinder as the first stimulus center. The second stimulus center in this test was a blank (no chemical stimulus).
# For the third test, ferric chloride hexahydrate was impregnated on diatomaceous earth and was activated with a moisture containing substance to form the first stimulus center. This material released water and trace amounts of hydrochloric acid, HCl. The second stimulus center was dry carbon dioxide fed at 5 ml/min from a standard gas cylinder.
# As with Example 1, 100 AE mosquitoes were placed into an olfactometer unit. For each test, the mosquitoes were exposed to two sets of stimuli for a collection period of 3 minutes. The mosquitoes could choose between the stimuli or not respond.
# For the first test, dry carbon dioxide was fed at 5 ml/min from a standard gas cylinder as the first stimulus center. The second stimulus center in this test was a blank (no chemical stimulus).
# For the second test, ferric chloride hexahydrate impregnated on diatomaceous earth and sodium bicarbonate powder were contained in a sachet. The sachet was activated by combining the two powders stimulating a chemical reaction that released carbon dioxide, water and trace amounts of hydrochloric acid, forming the first stimulus center. The reaction produces by-product water that stimulates hydrochloric acid production from the ferric chloride. The sachet was designed to release CO2 at a rate of 5 ml/min over the collection period. The second stimulus center in this test was a blank (no chemical stimulus).
# For the third test, a sachet containing ferric chloride hexahydrate impregnated on diatomaceous earth and sodium bicarbonate powder, similar to the sachet used in the second test, was activated with a moisture-containing substance to release carbon dioxide water and trace amounts of hydrochloric acid, forming the first stimulus center. The reaction produces by-product water that stimulates hydrochloric acid production from the ferric chloride. The second stimulus center was carbon dioxide fed at 5 ml/min from a standard gas cylinder.
# As with Examples 1 and 2, 100 AE mosquitoes were placed into an olfactometer unit. For each test, the mosquitoes were exposed to two sets of stimuli for a collection period of 3 minutes. The mosquitoes could choose between the stimuli or not respond.
# For the first test, ferric chloride hexahydrate impregnated on a diatomaceous earth was activated with a moisture containing substance to form the first stimulus center. This material released water and trace amounts of hydrochloric acid, HCl. The second stimulus center in this test was a blank (no chemical stimulus).
# The sachet was activated by combining the two powders stimulating a chemical reaction that released carbon dioxide, water and trace amounts of hydrochloric acid, forming the first stimulus center. The reaction produces by-product water that stimulates hydrochloric acid production from the ferric chloride. The sachet was designed to release carbon dioxide at a rate of 5 ml/min. The second stimulus center in this test was a blank.
# For the third test, a sachet identical to that used in the second test and containing ferric chloride hexahydrate impregnated on diatomaceous earth and sodium bicarbonate powder was activated, forming the first stimulus center.
smiles,measurement,setting,value
"O=C=O [CO2 (Dry), carbon dioxide]",Stimulant 2 - Avg. % attracted,"100 AE mosquitoes, 3 min, first stimulus center Activated Ferric Chloride",12%
same,Stimulant 2 - Avg. % attracted,"100 AE mosquitoes, 3 min, first stimulus center CO2/HCl/H2O Sachet",2%
same,Stimulant 1 - Avg. % attracted,"100 AE mosquitoes, 3 min collection, second stimulus center blank (Examples 1-3)",21%
same,Stimulant 2 - Avg. % attracted,"Example 4: CO2 5 mL/min, 3 min, first stimulus center CO2 flowing over water surface",7%
same,Stimulant 1 - Avg. % attracted,"Example 4: dry CO2 5 mL/min through tube or cartridge, 100 AE mosquitoes, 3 min, second stimulus center blank",15%
same,"attraction of mosquitoes, result in words",listed as CO2 (dry),is an attractant for mosquitoes
same,"attraction of mosquitoes, result in words",listed as carbon dioxide,did not draw significant numbers
